Data reported in PubChem BioAssay AID192 (DTP/NCI, 2004).
Values joined by “and” are separate entries in the source; they are usually repeats but may differ in a detail not shown here. Equal entries are not always repeated. Toxic doses and inconclusive results are not listed.

Tested on: BDF1 mice, B16 melanoma ip, median survival T/C
Experiment: NCI In Vivo Anticancer Drug Screen. Data for tumor model B16 Melanoma (intraperitoneal) in B6D2F1 (BDF1) mice
Conditions: endpoint: median survival time, higher = longer survival
Method in brief: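 Each result divides a survival or tumor-size measurement in the compound-treated group by the same measurement in the vehicle group.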

[1] = dose: 12.5 mg/kg/injection, schedule: Q01DX009 (ip), vehicle: saline with Tween-80
[2] = dose: 25.0 mg/kg/injection, schedule: Q01DX009 (ip), vehicle: saline with Tween-80
[3] = dose: 50.0 mg/kg/injection, schedule: Q01DX009 (ip), vehicle: saline with Tween-80
[4] = dose: 100.0 mg/kg/injection, schedule: Q01DX009 (ip), vehicle: Klucel (hydroxypropylcellulose) (HPC)
[5] = dose: 200.0 mg/kg/injection, schedule: Q01DX009 (ip), vehicle: Klucel (hydroxypropylcellulose) (HPC)
[6] = dose: 6.25 mg/kg/injection, schedule: Q01DX009 (ip), vehicle: Klucel (hydroxypropylcellulose) (HPC)
[7] = dose: 12.5 mg/kg/injection, schedule: Q01DX009 (ip), vehicle: Klucel (hydroxypropylcellulose) (HPC)
[8] = dose: 25.0 mg/kg/injection, schedule: Q01DX009 (ip), vehicle: Klucel (hydroxypropylcellulose) (HPC)
[9] = dose: 50.0 mg/kg/injection, schedule: Q01DX009 (ip), vehicle: Klucel (hydroxypropylcellulose) (HPC)
[10] = dose: 100.0 mg/kg/injection, schedule: Q01DX009 (ip), vehicle: saline with Tween-80
[11] = dose: 3.12 mg/kg/injection, schedule: Q01DX009 (ip), vehicle: Klucel (hydroxypropylcellulose) (HPC)
[12] = dose: 100.0 mg/kg/injection, schedule: Q01DX009 (ip), vehicle: saline
[13] = dose: 400.0 mg/kg/injection, schedule: Q01DX009 (ip), vehicle: saline

`CC(=O)OC(CC(O)(C(F)(F)F)C(F)(F)F)C(C)(C)C` (stereo not given) was tested, and the T/C [1] was 120 % of control, the T/C (dose: 12.5 mg/kg/injection, schedule: Q04DX003 (ip), vehicle: saline with Tween-80) was 105 % of control and the T/C [2] was 117 % of control. For the same molecule, the T/C (dose: 25.0 mg/kg/injection, schedule: Q04DX003 (ip), vehicle: saline with Tween-80) was 105 % of control, the T/C [3] was 97 % of control and the T/C (dose: 50.0 mg/kg/injection, schedule: Q04DX003 (ip), vehicle: saline with Tween-80) was 117 % of control.
In the case of `NNC(=O)c1ccccn1`, the T/C (dose: 25.0 mg/kg/injection, schedule: Q01DX009 (ip), vehicle: water) is reported as 106 % of control and the T/C (dose: 50.0 mg/kg/injection, schedule: Q01DX009 (ip), vehicle: water) is reported as 113 % of control.
For `CCOc1ccccc1NC(=O)CC(C)=O`, the T/C [4] was 100 % of control and the T/C [5] was 97 % of control.
`CCOc1ccc(/C=N/NS(=O)(=O)c2ccc(C)cc2)cc1` was tested, and the T/C [4] was 96 % of control, the T/C [5] was 90 % of control and the T/C (dose: 400.0 mg/kg/injection, schedule: Q01DX009 (ip), vehicle: Klucel (hydroxypropylcellulose) (HPC)) was 90 % of control.
With `CCC(CO)NC(=O)C1C=C2c3cccc4[nH]cc(c34)CC2N(C)C1` (stereo not given) the T/C [6] was 93 % of control, the T/C [7] was 98 % of control and the T/C [8] was 91 % of control. For the same molecule, the T/C [9] was 86 % of control, the T/C [4] was 86 % of control and the T/C [5] was 111 % of control.
With `COc1cc(C2c3cc4c(cc3CC3COC(=O)C32)OCO4)cc(OC)c1O` (stereo not given) the T/C (dose: 0.5 mg/kg/injection, schedule: Q01DX009 (ip), vehicle: saline with Tween-80) was 98 % of control, the T/C (dose: 1.0 mg/kg/injection, schedule: Q01DX009 (ip), vehicle: saline with Tween-80) was 104 % of control and the T/C (dose: 2.0 mg/kg/injection, schedule: Q01DX009 (ip), vehicle: saline with Tween-80) was 123 % of control. For the same molecule, the T/C (dose: 4.0 mg/kg/injection, schedule: Q01DX009 (ip), vehicle: saline with Tween-80) was 106 % of control.
`Nc1ccc(S(=O)(=O)c2ccc(N)cc2)cc1` was tested, and the T/C [1] was 107 % of control, the T/C [2] was 97 % of control and 102 % of control and the T/C [3] was 90 % of control and 94 % of control. The T/C [10] was 93 % of control and 95 % of control and the T/C (dose: 200.0 mg/kg/injection, schedule: Q01DX009 (ip), vehicle: saline with Tween-80) was 94 % of control.
In the case of `N#CCc1c(Cl)ccc(Cl)c1Cl`, the T/C [6] is reported as 104 % of control, the T/C [7] is reported as 99 % of control and the T/C [8] is reported as 95 % of control. The T/C [9] was 107 % of control.
In the case of `Clc1ccc(C[P+](c2ccccc2)(c2ccccc2)c2ccccc2)cc1Cl`, the T/C [11] is reported as 103 % of control, the T/C [6] is reported as 101 % of control and the T/C [7] is reported as 107 % of control.
For `CCOc1ccc(Br)cc1/C=N\N=C\c1cc(Br)ccc1OCC`, the T/C [7] was 100 % of control, the T/C [8] was 88 % of control and 105 % of control and the T/C [9] was 89 % of control and 94 % of control.
With `CCOc1ccccc1NC(=O)c1cc2ccccc2cc1O` the T/C [12] was 115 % of control, the T/C (dose: 200.0 mg/kg/injection, schedule: Q01DX009 (ip), vehicle: saline) was 118 % of control and the T/C [13] was 121 % of control.
With `Nc1nc(N)c2nc(CN(CCO)c3ccc(C(=O)NC(CCC(=O)O)C(=O)O)cc3)cnc2n1` (stereo not given) the T/C (dose: 0.1 mg/kg/injection, schedule: Q01DX009 (ip), vehicle: Klucel (hydroxypropylcellulose) (HPC)) was 107 % of control, the T/C (dose: 0.2 mg/kg/injection, schedule: Q01DX009 (ip), vehicle: Klucel (hydroxypropylcellulose) (HPC)) was 101 % of control and the T/C (dose: 0.37 mg/kg/injection, schedule: Q01DX009 (ip), vehicle: Klucel (hydroxypropylcellulose) (HPC)) was 99 % of control. For the same molecule, the T/C (dose: 0.75 mg/kg/injection, schedule: Q01DX009 (ip), vehicle: Klucel (hydroxypropylcellulose) (HPC)) was 109 % of control, the T/C (dose: 1.0 mg/kg/injection, schedule: Q01DX009 (ip), vehicle: Klucel (hydroxypropylcellulose) (HPC)) was 157 % of control and the T/C (dose: 1.5 mg/kg/injection, schedule: Q01DX009 (ip), vehicle: Klucel (hydroxypropylcellulose) (HPC)) was 97 % of control.
For `O=C(O)C(c1ccccc1)C1CCCC1` (stereo not given), the T/C [1] was 109 % of control, the T/C [2] was 111 % of control and the T/C [3] was 94 % of control and 106 % of control.
For `CCN(CC)CCN(C)CCN(CC)CC`, the T/C (dose: 50.0 mg/kg/injection, schedule: Q01DX009 (ip), vehicle: saline) was 100 % of control and the T/C [12] was 94 % of control.
With `Cc1cnc2c(NC(=O)CCl)nn(C)c2n1` the T/C [9] was 103 % of control and the T/C [4] was 101 % of control.
`Cc1c(C(=O)O)cc2n(c1=O)Cc1cc3ccccc3nc1-2` was tested, and the T/C (dose: 25.0 mg/kg/injection, schedule: Q04DX003 (ip), vehicle: Klucel (hydroxypropylcellulose) (HPC)) was 102 % of control, the T/C (dose: 50.0 mg/kg/injection, schedule: Q04DX003 (ip), vehicle: Klucel (hydroxypropylcellulose) (HPC)) was 94 % of control and the T/C (dose: 100.0 mg/kg/injection, schedule: Q04DX003 (ip), vehicle: Klucel (hydroxypropylcellulose) (HPC)) was 89 % of control. For the same molecule, the T/C (dose: 100.0 mg/kg/injection, schedule: Q04DX003 (ip), vehicle: saline with Tween-80) was 100 % of control.
`CCOC(=O)CC1=CCCCC1` was tested, and the T/C (dose: 70.0 mg/kg/injection, schedule: Q01DX009 (ip), vehicle: Klucel (hydroxypropylcellulose) (HPC)) was 100 % of control, the T/C (dose: 140.0 mg/kg/injection, schedule: Q01DX009 (ip), vehicle: Klucel (hydroxypropylcellulose) (HPC)) was 106 % of control and the T/C (dose: 280.0 mg/kg/injection, schedule: Q01DX009 (ip), vehicle: Klucel (hydroxypropylcellulose) (HPC)) was 100 % of control.
In the case of `C=C1CC(OC(=O)C(C)(O)CCl)C2C(=C)C(=O)OC2C2C1CC(O)C2(O)CCl` (stereo not given), the T/C (dose: 3.0 mg/kg/injection, schedule: Q01DX009 (ip), vehicle: Klucel (hydroxypropylcellulose) (HPC)) is reported as 104 % of control, the T/C (dose: 6.0 mg/kg/injection, schedule: Q01DX009 (ip), vehicle: Klucel (hydroxypropylcellulose) (HPC)) is reported as 101 % of control and the T/C (dose: 12.0 mg/kg/injection, schedule: Q01DX009 (ip), vehicle: Klucel (hydroxypropylcellulose) (HPC)) is reported as 101 % of control. For the same molecule, the T/C (dose: 24.0 mg/kg/injection, schedule: Q01DX009 (ip), vehicle: Klucel (hydroxypropylcellulose) (HPC)) was 93 % of control.
With `C[CH2][Ge]([CH2]C)[CH2]C.C[CH2][Ge]([CH2]C)[CH2]C.C[CH2][Ge]([CH2]C)[O][Ge]([CH2]C)[CH2]C` the T/C (dose: 6.25 mg/kg/injection, schedule: Q01DX009 (ip), vehicle: saline with Tween-80) was 101 % of control, the T/C [1] was 100 % of control and the T/C [2] was 101 % of control. The T/C [3] was 91 % of control and the T/C [10] was 100 % of control.
In the case of `CN(N=O)C(=O)N[C@@H](C=O)[C@@H](O)[C@H](O)[C@H](O)CO`, the T/C (dose: 12.5 mg/kg/injection, schedule: Q01DX009 (ip), vehicle: citric acid) is reported as 105 % of control, the T/C (dose: 12.5 mg/kg/injection, schedule: Q01DX009 (ip), vehicle: other) is reported as 109 % of control and 117 % of control (2×) and the T/C (dose: 25.0 mg/kg/injection, schedule: Q01DX009 (ip), vehicle: citric acid) is reported as 106 % of control. For the same molecule, the T/C (dose: 25.0 mg/kg/injection, schedule: Q01DX009 (ip), vehicle: other) was 105 % of control and 118 % of control and 124 % of control, the T/C (dose: 37.5 mg/kg/injection, schedule: Q04DX003 (ip), vehicle: saline) was 90 % of control and 115 % of control and the T/C (dose: 50.0 mg/kg/injection, schedule: Q01DX009 (ip), vehicle: citric acid) was 117 % of control. The T/C (dose: 75.0 mg/kg/injection, schedule: Q04DX003 (ip), vehicle: saline) was 118 % of control, the T/C (dose: 150.0 mg/kg/injection, schedule: Q04DX003 (ip), vehicle: saline) was 116 % of control and the T/C (dose: 300.0 mg/kg/injection, schedule: Q04DX003 (ip), vehicle: saline) was 45 % of control and 118 % of control.
With `Cc1c2oc3c(C)ccc(C(=O)NCCN4CCCCC4)c3nc-2c(C(=O)NCCN2CCCCC2)c(N)c1=O` the T/C [7] was 97 % of control and the T/C [8] was 112 % of control.
In the case of `CSCCC(C#N)c1ccccc1` (stereo not given), the T/C [3] is reported as 88 % of control and the T/C [10] is reported as 88 % of control.
For `CC1CCC2(OC1)OC1C(O)C3C4CCC5CC(OC6OC(CO)C(OC7OC(CO)C(O)C(OC8OCC(O)C(O)C8O)C7OC7OC(CO)C(O)C(OC8OC(CO)C(O)C(O)C8O)C7O)C(O)C6O)C(O)CC5(C)C4CCC3(C)C1C2C` (stereo not given), the T/C (dose: 0.62 mg/kg/injection, schedule: Q01DX009 (ip), vehicle: saline) was 109 % of control, the T/C (dose: 1.25 mg/kg/injection, schedule: Q01DX009 (ip), vehicle: saline) was 99 % of control and the T/C (dose: 2.5 mg/kg/injection, schedule: Q01DX009 (ip), vehicle: saline) was 103 % of control. The T/C (dose: 5.0 mg/kg/injection, schedule: Q01DX009 (ip), vehicle: saline) was 92 % of control.
In the case of `CC(=O)OCC1OC(n2cc(CBr)nn2)C(OC(C)=O)C(OC(C)=O)C1OC(C)=O` (stereo not given), the T/C [11] is reported as 97 % of control, the T/C [6] is reported as 98 % of control and the T/C [7] is reported as 108 % of control. For the same molecule, the T/C [8] was 100 % of control and the T/C [9] was 98 % of control.
With `CC[CH2][Pb]([CH2]CC)([CH2]CC)[O]C(=O)c1ccccc1` the T/C (dose: 1.56 mg/kg/injection, schedule: Q01DX009 (ip), vehicle: Klucel (hydroxypropylcellulose) (HPC)) was 103 % of control and the T/C (dose: 3.13 mg/kg/injection, schedule: Q01DX009 (ip), vehicle: Klucel (hydroxypropylcellulose) (HPC)) was 96 % of control.
With `O=C(O)CCNCCO` the T/C [13] was 97 % of control.
